From patent US20240252454A1, “COMPOSITION COMPRISING AN INHIBITOR OF MITOCHONDRIAL TRANSCRIPTION” (LEAD DISCOVERY CENTER GMBH, priority 2021, published 2024)

Key:
Experiment in all cases: SRB assay, IMT combined with inhibitor
Format in all cases: cell-based
HT1080 = HT1080 (connective tissue); concentration series of the labelled inhibitor + fixed concentration of IMT (3S)-1-[(2R)-2-[4-(2-chloro-4-fluoro-phenyl)-2-oxo-chromen-7-yl]oxypropanoyl]piperidine-3-carboxylic acid (Table 3: 40 nM, 120 h); negative=synergistic, positive=antagonistic
Method: (§1) Solforhodamine B assay is carried out as described in Voigt W. (2005) Sulforhodamine B Assay and Chemosensitivity. (Methods in Molecular Medicine™, vol 110. Humana Press. https://doi.org/10.1385/1-59259-869-2:039).
(§2) The determination of changes in cellular biomass was based on the Solforhodamine B assay format, carried out as described in Voigt W. (2005) Sulforhodamine B Assay and Chemosensitivity. (Methods in Molecular Medicine™, vol 110. Humana Press. https://doi.org/10.1385/1-59259-869-2:039).
(§3) All in vitro cell culture experiments were carried out under near physiological glucose concentrations (5 mM) in at least two independent replicates.
(§4) First, 30 different cell lines from 14 different tissue types were tested in the SRB assay format. The cells were examined individually for changes in growth over a period of 120 hours with dilution series of both inhibitors. Untreated cells were used as a negative control group. Subsequently, a dilution series of the respective MAPK signalling pathway SOCs was treated in combination with a fixed concentration of 40 nM (3S)-1-[(2R)-2-[4-(2-chloro-4-fluoro-phenyl)-2-oxo-chromen-7-yl]oxypropanoyl]piperidine-3-carboxylic acid.

COLO205 = COLO205 (colon); concentration series of the labelled inhibitor + fixed concentration of IMT (3S)-1-[(2R)-2-[4-(2-chloro-4-fluoro-phenyl)-2-oxo-chromen-7-yl]oxypropanoyl]piperidine-3-carboxylic acid (Table 3: 40 nM, 120 h); negative=synergistic, positive=antagonistic
Method: as §1, §2, §3, §4

KASUMI-1 = KASUMI-1 (hematological); concentration series of the labelled inhibitor + fixed concentration of IMT (3S)-1-[(2R)-2-[4-(2-chloro-4-fluoro-phenyl)-2-oxo-chromen-7-yl]oxypropanoyl]piperidine-3-carboxylic acid (Table 3: 40 nM, 120 h); negative=synergistic, positive=antagonistic
Method: as §1, §2, §3, §4

HCT15 = HCT15 (colon); concentration series of the labelled inhibitor + fixed concentration of IMT (3S)-1-[(2R)-2-[4-(2-chloro-4-fluoro-phenyl)-2-oxo-chromen-7-yl]oxypropanoyl]piperidine-3-carboxylic acid (Table 3: 40 nM, 120 h); negative=synergistic, positive=antagonistic
Method: as §1, §2, §3, §4

SW620 = SW620 (colon); concentration series of the labelled inhibitor + fixed concentration of IMT (3S)-1-[(2R)-2-[4-(2-chloro-4-fluoro-phenyl)-2-oxo-chromen-7-yl]oxypropanoyl]piperidine-3-carboxylic acid (Table 3: 40 nM, 120 h); negative=synergistic, positive=antagonistic
Method: as §1, §2, §3, §4

SKMEL5 = SKMEL5 (skin); concentration series of the labelled inhibitor + fixed concentration of IMT (3S)-1-[(2R)-2-[4-(2-chloro-4-fluoro-phenyl)-2-oxo-chromen-7-yl]oxypropanoyl]piperidine-3-carboxylic acid (Table 3: 40 nM, 120 h); negative=synergistic, positive=antagonistic
Method: as §1, §2, §3, §4

HELA = HELA (cervix); concentration series of the labelled inhibitor + fixed concentration of IMT (3S)-1-[(2R)-2-[4-(2-chloro-4-fluoro-phenyl)-2-oxo-chromen-7-yl]oxypropanoyl]piperidine-3-carboxylic acid (Table 3: 40 nM, 120 h); negative=synergistic, positive=antagonistic
Method: as §1, §2, §3, §4

DU145 = DU145 (prostate); concentration series of the labelled inhibitor + fixed concentration of IMT (3S)-1-[(2R)-2-[4-(2-chloro-4-fluoro-phenyl)-2-oxo-chromen-7-yl]oxypropanoyl]piperidine-3-carboxylic acid (Table 3: 40 nM, 120 h); negative=synergistic, positive=antagonistic
Method: as §1, §2, §3, §4

JAR = JAR (placenta); concentration series of the labelled inhibitor + fixed concentration of IMT (3S)-1-[(2R)-2-[4-(2-chloro-4-fluoro-phenyl)-2-oxo-chromen-7-yl]oxypropanoyl]piperidine-3-carboxylic acid (Table 3: 40 nM, 120 h); negative=synergistic, positive=antagonistic
Method: as §1, §2, §3, §4

SKMEL28 = SKMEL28 (skin); concentration series of the labelled inhibitor + fixed concentration of IMT (3S)-1-[(2R)-2-[4-(2-chloro-4-fluoro-phenyl)-2-oxo-chromen-7-yl]oxypropanoyl]piperidine-3-carboxylic acid (Table 3: 40 nM, 120 h); negative=synergistic, positive=antagonistic
Method: as §1, §2, §3, §4

IMR90 = IMR90 (lung); concentration series of the labelled inhibitor + fixed concentration of IMT (3S)-1-[(2R)-2-[4-(2-chloro-4-fluoro-phenyl)-2-oxo-chromen-7-yl]oxypropanoyl]piperidine-3-carboxylic acid (Table 3: 40 nM, 120 h); negative=synergistic, positive=antagonistic
Method: as §1, §2, §3, §4

HT29 = HT29 (colon); concentration series of the labelled inhibitor + fixed concentration of IMT (3S)-1-[(2R)-2-[4-(2-chloro-4-fluoro-phenyl)-2-oxo-chromen-7-yl]oxypropanoyl]piperidine-3-carboxylic acid (Table 3: 40 nM, 120 h); negative=synergistic, positive=antagonistic
Method: as §1, §2, §3, §4

A2780 = A2780 (ovary); concentration series of the labelled inhibitor + fixed concentration of IMT (3S)-1-[(2R)-2-[4-(2-chloro-4-fluoro-phenyl)-2-oxo-chromen-7-yl]oxypropanoyl]piperidine-3-carboxylic acid (Table 3: 40 nM, 120 h); negative=synergistic, positive=antagonistic
Method: In two studies, the ovarian cell line A2780 was tested for 72 hours with the IMT N,N-dimethyl-2-[4-(o-tolyl)-2-oxo-chromen-7-yl]oxy-propanamide (30 μM-15 nM) and the MEK inhibitor Selumetinib (30 μM-10 nM), or with the IMT 1-[2-[4-(2-chlorophenyl)-2-oxo-chromen-7-yl]oxypropanoyl]piperidine-3-sulfonamide (30 μM-15 nM) and the MEK inhibitor PD318088 (30 μM-10 nM).
as §1, §2, §3, §4

Compound | difference between the calculated combinatorial index (BLISS) and the observed combinatorial effect (HT1080) | difference between the calculated combinatorial index (BLISS) and the observed combinatorial effect (COLO205) | difference between the calculated combinatorial index (BLISS) and the observed combinatorial effect (KASUMI-1) | difference between the calculated combinatorial index (BLISS) and the observed combinatorial effect (HCT15) | difference between the calculated combinatorial index (BLISS) and the observed combinatorial effect (SW620) | difference between the calculated combinatorial index (BLISS) and the observed combinatorial effect (SKMEL5) | difference between the calculated combinatorial index (BLISS) and the observed combinatorial effect (HELA) | difference between the calculated combinatorial index (BLISS) and the observed combinatorial effect (DU145) | difference between the calculated combinatorial index (BLISS) and the observed combinatorial effect (JAR) | difference between the calculated combinatorial index (BLISS) and the observed combinatorial effect (SKMEL28) | difference between the calculated combinatorial index (BLISS) and the observed combinatorial effect (IMR90) | difference between the calculated combinatorial index (BLISS) and the observed combinatorial effect (HT29) | difference between the calculated combinatorial index (BLISS) and the observed combinatorial effect (A2780)
CC(=O)Nc1cccc(-n2c(=O)n(C3CC3)c(=O)c3c(Nc4ccc(I)cc4F)n(C)c(=O)c(C)c32)c1 [Trametinib] | 0.0288 | 0.0319 | −0.0377 | 0.0677 | 0.0028 | 0.0072 | −0.0064 | 0.0287 | 0.0230 | 0.0296 | 0.0533 | 0.0338 | 0.0305
CS(=O)(=O)N1CCN(Cc2cc3nc(-c4cccc5[nH]ncc45)nc(N4CCOCC4)c3s2)CC1 [GDC-0941, 2-(1H-Indazol-4-yl)-6-[[4-(methylsulfonyl)-1-piperazinyl]methyl]-4-(4-morpholinyl)thieno[3,2-d]pyrimidine] | 0.0172 | 0.0355 | 0.0051 | 0.0270 | 0.0303 | −0.0915 | −0.0531 | 0.0436 | 0.0136 | −0.0330 | 0.0629 | 0.1027 | 0.0077
Cc1cc(C(=O)NOCCO)c(Nc2ccc(I)cc2F)n(C)c1=O [AZD8330, 2-((2-Fluoro-4-iodophenyl)amino)-N-(2-hydroxyethoxy)-1,5-dimethyl-6-oxo-1,6-dihydropyridine-3-carboxamide] | 0.0197 | 0.0127 | −0.0326 | 0.1028 | −0.0037 | 0.0135 | 0.0000 | 0.0201 | 0.0124 | 0.0300 | 0.0338 | 0.0488 | 0.0118
COc1c(OCCCN2CCOCC2)ccc2c1N=C(NC(=O)c1cnc(N)nc1)N1CCN=C21 [BAY 80-6946, 2-Amino-N-{7-methoxy-8-[3-(4-morpholinyl)propoxy]-2,3-dihydroimidazo[1,2-c]quinazolin-5-yl}-5-pyrimidinecarboxamide] | −0.0627 | 0.0531 | 0.0015 | 0.1444 | −0.0651 | −0.0994 | −0.0260 | 0.0423 | 0.0381 | −0.0068 | 0.0281 | 0.0613 | 0.0466
C[C@H](Nc1ncnc2nc[nH]c12)c1cc2cccc(Cl)c2c(=O)n1-c1ccccc1 [Duvelisib] | −0.0565 | −0.0157 | −0.0237 | 0.0170 | −0.0623 | −0.1083 | −0.0666 | 0.0362 | 0.0624 | −0.0412 | 0.0253 | 0.0216 | 0.0081
